According to ChEMBL document CHEMBL1201862, “PubChem BioAssay data set” (2004):
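Cells were grown in 96-well plates and exposed to each compound for 48 hours at five concentrations; endpoints were interpolated linearly between bracketing concentrations, or set to the highest concentration if not reached. Here, GI50 denotes the concentration required for 50% inhibition of growth.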 The source made the active and inactive calls. No stated cut-off is given here; in the data, active = GI50 up to about 1.1 µM and inactive = higher.

Assays:
Experiment in all cases: NCI tumour cell line growth inhibition, 48 h
COLO 205 = tested on: COLO 205
UACC-257 = tested on: UACC-257
ACHN = tested on: ACHN
OVCAR-8 = tested on: OVCAR-8
A549 = tested on: A549
HOP-92 = tested on: HOP-92
MDA-MB-231 = tested on: MDA-MB-231
786-0 = tested on: 786-0
SNB-75 = tested on: SNB-75
NCI-H460 = tested on: NCI-H460
U-251 = tested on: U-251
HCT-116 = tested on: HCT-116
NCI-H23 = tested on: NCI-H23
MOLT-4 = tested on: MOLT-4
HCC 2998 = tested on: HCC 2998
PC-3 = tested on: PC-3
SNB-19 = tested on: SNB-19
TK-10 = tested on: TK-10
HOP-62 = tested on: HOP-62
T47D = tested on: T47D

SMILES | GI50 (COLO 205) | GI50 (UACC-257) | GI50 (ACHN) | GI50 (OVCAR-8) | GI50 (A549) | GI50 (HOP-92) | GI50 (MDA-MB-231) | GI50 (786-0) | GI50 (SNB-75) | GI50 (NCI-H460) | GI50 (U-251) | GI50 (HCT-116) | GI50 (NCI-H23) | GI50 (MOLT-4) | GI50 (HCC 2998) | GI50 (PC-3) | GI50 (SNB-19) | GI50 (TK-10) | GI50 (HOP-62) | GI50 (T47D)
O=C1c2ccccc2-c2nc(-c3ccncc3)cc3c2c1nc1ccccc13 | 22.3 µM (inactive) | 19.1 µM (inactive) | 8.32 µM (inactive) | 25.2 µM (inactive) | 13.6 µM (inactive) | > 100 µM (inactive) | > 100 µM (inactive) | 11.1 µM (inactive) | 32.5 µM (inactive) | 10.5 µM (inactive) | 14.9 µM (inactive) | 6.4 µM (inactive) | 15.3 µM (inactive) | 2.83 µM (inactive) | 18.7 µM (inactive) | 13.3 µM (inactive) | 23.6 µM (inactive) | 33.2 µM (inactive) | 6.55 µM (inactive) | –
CCC/C(C)=N/NC(=S)SC.CCC/C(C)=N/NC(=S)SC.[Zn+2] | 14.2 µM (inactive) | 7.46 µM (inactive) | 9.08 µM (inactive) | 1.89 µM (inactive) | 12.6 µM (inactive) | – | 1.7 µM (inactive) | 10.9 µM (inactive) | 18.7 µM (inactive) | 16 µM (inactive) | 1.84 µM (inactive) | 10.4 µM (inactive) | 13.7 µM (inactive) | 1.47 µM (inactive) | – | 12.4 µM (inactive) | 16.2 µM (inactive) | 11.6 µM (inactive) | 9.75 µM (inactive) | 11.5 µM (inactive)
CCOC1NC(=O)Oc2ccccc21 (stereo unspecified) | > 100 µM (inactive) | > 100 µM (inactive) | > 100 µM (inactive) | > 100 µM (inactive) | > 100 µM (inactive) | > 100 µM (inactive) | > 100 µM (inactive) | > 100 µM (inactive) | > 100 µM (inactive) | > 100 µM (inactive) | > 100 µM (inactive) | > 100 µM (inactive) | > 100 µM (inactive) | > 100 µM (inactive) | > 100 µM (inactive) | > 100 µM (inactive) | > 100 µM (inactive) | > 100 µM (inactive) | > 100 µM (inactive) | –
BrC1(c2ccccc2)C[n+]2c(-c3ccccc3)cc(-c3ccccc3)cc2-c2ccccc21 (stereo unspecified) | 0.157 µM (active) | 0.233 µM (active) | 1.42 µM (inactive) | 0.36 µM (active) | 0.929 µM (active) | 0.664 µM (active) | 0.336 µM (active) | 0.661 µM (active) | 0.236 µM (active) | 0.444 µM (active) | 0.226 µM (active) | 0.365 µM (active) | 1 µM (active) | 0.631 µM (active) | 0.111 µM (active) | 0.346 µM (active) | 0.551 µM (active) | 1.73 µM (inactive) | 0.611 µM (active) | –
O=c1n(Cc2ccccc2)c(=O)n2c(=O)n(Cc3ccccc3)c(=O)n12 | 38.3 µM (inactive) | > 100 µM (inactive) | > 100 µM (inactive) | > 100 µM (inactive) | – | > 100 µM (inactive) | > 100 µM (inactive) | > 100 µM (inactive) | > 100 µM (inactive) | > 100 µM (inactive) | > 100 µM (inactive) | > 100 µM (inactive) | > 100 µM (inactive) | – | > 100 µM (inactive) | – | > 100 µM (inactive) | > 100 µM (inactive) | – | > 100 µM (inactive)
Cc1ccc(/C=C2\NC(=S)NC2=O)cc1 | > 100 µM (inactive) | – | – | > 100 µM (inactive) | > 100 µM (inactive) | – | > 100 µM (inactive) | > 100 µM (inactive) | > 100 µM (inactive) | – | > 100 µM (inactive) | > 100 µM (inactive) | > 100 µM (inactive) | > 100 µM (inactive) | > 100 µM (inactive) | > 100 µM (inactive) | > 100 µM (inactive) | > 100 µM (inactive) | > 100 µM (inactive) | > 100 µM (inactive)
CN(C)C1(C(=O)O)CC1 | – | > 100 µM (inactive) | > 100 µM (inactive) | > 100 µM (inactive) | > 100 µM (inactive) | > 100 µM (inactive) | – | > 100 µM (inactive) | > 100 µM (inactive) | > 100 µM (inactive) | > 100 µM (inactive) | > 100 µM (inactive) | > 100 µM (inactive) | > 100 µM (inactive) | > 100 µM (inactive) | > 100 µM (inactive) | > 100 µM (inactive) | > 100 µM (inactive) | > 100 µM (inactive) | > 100 µM (inactive)
CCN(CC)C1CCC(C2c3cc4c(cc3OC(N3CCOCC3)C2C)OCO4)CC1 (stereo unspecified) | 7.98 µM (inactive) | 18.4 µM (inactive) | 16.7 µM (inactive) | 23.6 µM (inactive) | 27.5 µM (inactive) | 4.09 µM (inactive) | – | 33.7 µM (inactive) | 61.8 µM (inactive) | 16.3 µM (inactive) | 37.1 µM (inactive) | 32.3 µM (inactive) | 19.6 µM (inactive) | 10.1 µM (inactive) | 10 µM (inactive) | 10.4 µM (inactive) | 71.4 µM (inactive) | > 30.6 µM (inactive) | 18.3 µM (inactive) | 14.4 µM (inactive)
O=C1CC(C(OCc2ccccc2)C(OCc2ccccc2)C(COCc2ccccc2)OCc2ccccc2)CC(=O)N1 (stereo unspecified) | > 100 µM (inactive) | > 100 µM (inactive) | > 75 µM (inactive) | > 75 µM (inactive) | 72.4 µM (inactive) | – | 71.4 µM (inactive) | > 75 µM (inactive) | – | > 75 µM (inactive) | – | > 75 µM (inactive) | > 75 µM (inactive) | – | > 75 µM (inactive) | > 75 µM (inactive) | > 75 µM (inactive) | > 75 µM (inactive) | – | 26.1 µM (inactive)
O=C(Nc1ccn(C2CC(O)C(CO)O2)c(=O)n1)c1ccccc1 (stereo unspecified) | > 100 µM (inactive) | > 100 µM (inactive) | > 100 µM (inactive) | > 100 µM (inactive) | > 100 µM (inactive) | – | > 100 µM (inactive) | > 100 µM (inactive) | > 100 µM (inactive) | > 100 µM (inactive) | > 100 µM (inactive) | > 100 µM (inactive) | > 100 µM (inactive) | > 100 µM (inactive) | – | > 100 µM (inactive) | > 100 µM (inactive) | > 100 µM (inactive) | > 100 µM (inactive) | > 100 µM (inactive)
CC(C)(C)OC(=O)NC(CSCc1ccc(C(=O)c2ccccc2)cc1)C(=O)O (stereo unspecified) | > 100 µM (inactive) | > 100 µM (inactive) | > 100 µM (inactive) | > 100 µM (inactive) | > 100 µM (inactive) | > 100 µM (inactive) | > 100 µM (inactive) | > 100 µM (inactive) | > 100 µM (inactive) | > 100 µM (inactive) | > 100 µM (inactive) | > 100 µM (inactive) | > 100 µM (inactive) | > 100 µM (inactive) | > 100 µM (inactive) | > 100 µM (inactive) | > 100 µM (inactive) | > 100 µM (inactive) | > 100 µM (inactive) | –
